Test results: patent US20250262201A1, “COMPOUNDS AND METHODS USEFUL FOR STABILIZING PHENYLALANINE HYDROXYLASE MUTATIONS” (Agios Pharmaceuticals, Inc., priority 2022, published 2025)

These compounds were tested against T1, human PAH with the R408W mutation (Homo sapiens, UniProt P00439, R408W) (assay: Cell Based Phenylalanine Flux Assay). Conditions: A375 cells expressing human R408W PAH; 24 hrs compound incubation; 13C-Tyrosine by LC-MS; average where tested multiple times; read-out: AC50.
T1 construct: expressed in transfected cells
T1 sequence (P00439 1-452 R408W): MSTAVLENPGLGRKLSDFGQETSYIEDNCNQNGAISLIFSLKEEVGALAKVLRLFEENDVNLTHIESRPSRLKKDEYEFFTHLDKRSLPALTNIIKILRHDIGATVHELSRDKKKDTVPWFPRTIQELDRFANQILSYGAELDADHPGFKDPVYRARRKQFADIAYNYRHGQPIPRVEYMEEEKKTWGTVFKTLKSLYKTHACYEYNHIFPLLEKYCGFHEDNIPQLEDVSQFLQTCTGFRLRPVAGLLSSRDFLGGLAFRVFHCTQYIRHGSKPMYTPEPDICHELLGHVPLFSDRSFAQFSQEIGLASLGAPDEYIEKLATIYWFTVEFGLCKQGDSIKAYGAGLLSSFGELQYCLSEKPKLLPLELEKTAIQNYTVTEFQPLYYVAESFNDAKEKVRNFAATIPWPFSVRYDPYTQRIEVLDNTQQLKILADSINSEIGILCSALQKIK

First: CN(C)Cc1ccc2c(C(=O)N3CCc4[nH]cnc4[C@@H]3c3ncc4ccccc4n3)cnn2c1 [Example 156, (R)-(6-((dimethylamino)methyl)pyrazolo[1,5-a]pyridin-3-yl)(4-(quinazolin-2-yl)-6,7-dihydro-1H-imidazo[4,5-c]pyridin-5(4H)-yl)methanone]
Second: Cn1ncnc1C(=O)N1CCc2[nH]cnc2[C@@H]1c1ncc2ccccc2n1 [Example 183, (R)-(1-methyl-1H-1,2,4-triazol-5-yl)(4-(quinazolin-2-yl)-6,7-dihydro-1H-imidazo[4,5-c]pyridin-5(4H)-yl)methanone]
The AC50 of the first is higher: > 5000 nM for the first, 1000 to 5000 nM for the second.

First: O=C(c1cnc(-c2ccccn2)o1)N1CCc2[nH]cnc2[C@@H]1c1ncc2ccccc2n1 [Example 157, (R)-(2-(pyridin-2-yl)oxazol-5-yl)(4-(quinazolin-2-yl)-6,7-dihydro-1H-imidazo[4,5-c]pyridin-5(4H)-yl)methanone]
Second: O=C(c1cnc(-c2ccccn2)o1)N1CCc2[nH]cnc2[C@H]1c1ncc2ccccc2n1 [Example 158, (S)-(2-(pyridin-2-yl)oxazol-5-yl)(4-(quinazolin-2-yl)-6,7-dihydro-1H-imidazo[4,5-c]pyridin-5(4H)-yl)methanone]
The AC50 of the first is higher: > 5000 nM for the first, 500 to 1000 nM for the second.

First: O=C(c1nnc(N2CCC(F)CC2)o1)N1CCc2[nH]cnc2[C@H]1c1ncc2ccccc2n1 [Example 159, (S)-(5-(4-fluoropiperidin-1-yl)-1,3,4-oxadiazol-2-yl)(4-(quinazolin-2-yl)-6,7-dihydro-1H-imidazo[4,5-c]pyridin-5(4H)-yl)methanone]
Second: O=C(c1nnc(N2CCC(F)CC2)o1)N1CCc2[nH]cnc2[C@@H]1c1ncc2ccccc2n1 [Example 160, (R)-(5-(4-fluoropiperidin-1-yl)-1,3,4-oxadiazol-2-yl)(4-(quinazolin-2-yl)-6,7-dihydro-1H-imidazo[4,5-c]pyridin-5(4H)-yl)methanone]
The AC50 of the first is lower: 1000 to 5000 nM for the first, > 5000 nM for the second.

Compared with CC(C)(F)c1nnc(C(=O)N2CCc3[nH]cnc3[C@H]2c2ncc3ccccc3n2)o1 [Example 161, (S)-(5-(2-fluoropropan-2-yl)-1,3,4-oxadiazol-2-yl)(4-(quinazolin-2-yl)-6,7-dihydro-1H-imidazo[4,5-c]pyridin-5(4H)-yl)methanone], CC(C)(F)c1nnc(C(=O)N2CCc3[nH]cnc3[C@@H]2c2ncc3ccccc3n2)o1 [Example 162, (R)-(5-(2-fluoropropan-2-yl)-1,3-oxadiazol-2-yl)(4-(quinazolin-2-yl)-6,7-dihydro-1H-imidazo[4,5-c]pyridin-5(4H)-yl)methanone] is higher in AC50: 500 to 1000 nM for the first, > 5000 nM for the second.

Going from O=C(c1nnc(-c2ncccc2F)o1)N1CCc2[nH]cnc2[C@H]1c1ncc2ccccc2n1 [Example 163, (S)-(5-(3-fluoropyridin-2-yl)-1,3,4-oxadiazol-2-yl)(4-(quinazolin-2-yl)-6,7-dihydro-1H-imidazo[4,5-c]pyridin-5(4H)-yl)methanone] to O=C(c1nnc(-c2ncccc2F)o1)N1CCc2[nH]cnc2[C@@H]1c1ncc2ccccc2n1 [Example 164, (R)-(5-(3-fluoropyridin-2-yl)-1,3,4-oxadiazol-2-yl)(4-(quinazolin-2-yl)-6,7-dihydro-1H-imidazo[4,5-c]pyridin-5(4H)-yl)methanone], the AC50 rises from < 500 nM to > 5000 nM.

Compared with Cn1ccc(-c2nnc(C(=O)N3CCc4[nH]cnc4[C@H]3c3ncc4ccccc4n3)o2)n1 [Example 165, (S)-(5-(1-methyl-1H-pyrazol-3-yl)-1,3,4-oxadiazol-2-yl)(4-(quinazolin-2-yl)-6,7-dihydro-1H-imidazo[4,5-c]pyridin-5(4H)-yl)methanone], Cn1ccc(-c2nnc(C(=O)N3CCc4[nH]cnc4[C@@H]3c3ncc4ccccc4n3)o2)n1 [Example 166, (R)-(5-(1-methyl-1H-pyrazol-3-yl)-1,3,4-oxadiazol-2-yl)(4-(quinazolin-2-yl)-6,7-dihydro-1H-imidazo[4,5-c]pyridin-5(4H)-yl)methanone] is higher in AC50: 500 to 1000 nM for the first, 1000 to 5000 nM for the second.

First: O=C(c1nnc(-c2ccc(F)cn2)o1)N1CCc2[nH]cnc2[C@@H]1c1ncc2ccccc2n1 [Example 167, (R)-(5-(5-fluoropyridin-2-yl)-1,3,4-oxadiazol-2-yl)(4-(quinazolin-2-yl)-6,7-dihydro-1H-imidazo[4,5-c]pyridin-5(4H)-yl)methanone]
Second: O=C(c1nnc(-c2ccc(F)cn2)o1)N1CCc2[nH]cnc2[C@H]1c1ncc2ccccc2n1 [Example 168, (S)-(5-(5-fluoropyridin-2-yl)-1,3,4-oxadiazol-2-yl)(4-(quinazolin-2-yl)-6,7-dihydro-1H-imidazo[4,5-c]pyridin-5(4H)-yl)methanone]
The AC50 of the first is higher: 1000 to 5000 nM for the first, < 500 nM for the second.

First: O=C(c1nnc(-c2ccc(C(F)(F)F)cn2)o1)N1CCc2[nH]cnc2[C@@H]1c1ncc2ccccc2n1 [Example 169, (R)-(4-(quinazolin-2-yl)-6,7-dihydro-1H-imidazo[4,5-c]pyridin-5(4H)-yl)(5-(5-(trifluoromethyl)pyridin-2-yl)-1,3,4-oxadiazol-2-yl)methanone]
Second: O=C(c1nnc(-c2ccc(C(F)(F)F)cn2)o1)N1CCc2[nH]cnc2[C@H]1c1ncc2ccccc2n1 [Example 170, (S)-(4-(quinazolin-2-yl)-6,7-dihydro-1H-imidazo[4,5-c]pyridin-5(4H)-yl)(5-(5-(trifluoromethyl)pyridin-2-yl)-1,3,4-oxadiazol-2-yl)methanone]
The AC50 of the first is higher: 1000 to 5000 nM for the first, 500 to 1000 nM for the second.

First: Cc1ccc(-c2nnc(C(=O)N3CCc4[nH]cnc4[C@H]3c3ncc4ccccc4n3)o2)nc1 [Example 171, (S)-(5-(5-methylpyridin-2-yl)-1,3,4-oxadiazol-2-yl)(4-(quinazolin-2-yl)-6,7-dihydro-1H-imidazo[4,5-c]pyridin-5(4H)-yl)methanone]
Second: Cc1ccc(-c2nnc(C(=O)N3CCc4[nH]cnc4[C@@H]3c3ncc4ccccc4n3)o2)nc1 [Example 172, (R)-(5-(5-methylpyridin-2-yl)-1,3,4-oxadiazol-2-yl)(4-(quinazolin-2-yl)-6,7-dihydro-1H-imidazo[4,5-c]pyridin-5(4H)-yl)methanone]
The AC50 of the first is lower: < 500 nM for the first, 1000 to 5000 nM for the second.

First: O=C(c1nnc(-c2cc(C(F)(F)F)ccn2)o1)N1CCc2[nH]cnc2[C@H]1c1ncc2ccccc2n1 [Example 173, (S)-(4-(quinazolin-2-yl)-6,7-dihydro-1H-imidazo[4,5-c]pyridin-5(4H)-yl)(5-(4-(trifluoromethyl)pyridin-2-yl)-1,3,4-oxadiazol-2-yl)methanone]
Second: O=C(c1nnc(-c2cc(C(F)(F)F)ccn2)o1)N1CCc2[nH]cnc2[C@@H]1c1ncc2ccccc2n1 [Example 174, (R)-(4-(quinazolin-2-yl)-6,7-dihydro-1H-imidazo[4,5-c]pyridin-5(4H)-yl)(5-(4-(trifluoromethyl)pyridin-2-yl)-1,3,4-oxadiazol-2-yl)methanone]
The AC50 of the first is lower: < 500 nM for the first, 1000 to 5000 nM for the second.

Compared with O=C(c1nnc(-c2cc[nH]n2)o1)N1CCc2[nH]cnc2[C@H]1c1ncc2ccccc2n1 [Example 175, (S)-(5-(1H-pyrazol-3-yl)-1,3,4-oxadiazol-2-yl)(4-(quinazolin-2-yl)-6,7-dihydro-1H-imidazo[4,5-c]pyridin-5(4H)-yl)methanone], O=C(c1nnc(-c2cc[nH]n2)o1)N1CCc2[nH]cnc2[C@@H]1c1ncc2ccccc2n1 [Example 176, (R)-(5-(1H-pyrazol-3-yl)-1,3,4-oxadiazol-2-yl)(4-(quinazolin-2-yl)-6,7-dihydro-1H-imidazo[4,5-c]pyridin-5(4H)-yl)methanone] is higher in AC50: 500 to 1000 nM for the first, > 5000 nM for the second.

Compared with O=C(c1nnc(-c2cccnc2)o1)N1CCc2[nH]cnc2[C@H]1c1ncc2ccccc2n1 [Example 177, (S)-(5-(pyridin-3-yl)-1,3,4-oxadiazol-2-yl)(4-(quinazolin-2-yl)-6,7-dihydro-1H-imidazo[4,5-c]pyridin-5(4H)-yl)methanone], O=C(c1nnc(-c2cccnc2)o1)N1CCc2[nH]cnc2[C@@H]1c1ncc2ccccc2n1 [Example 178, (R)-(5-(pyridin-3-yl)-1,3,4-oxadiazol-2-yl)(4-(quinazolin-2-yl)-6,7-dihydro-1H-imidazo[4,5-c]pyridin-5(4H)-yl)methanone] is higher in AC50: < 500 nM for the first, 1000 to 5000 nM for the second.

Compared with O=C(c1nnc(-c2ccncc2)o1)N1CCc2[nH]cnc2[C@H]1c1ncc2ccccc2n1 [Example 179, (S)-(5-(pyridin-4-yl)-1,3,4-oxadiazol-2-yl)(4-(quinazolin-2-yl)-6,7-dihydro-1H-imidazo[4,5-c]pyridin-5(4H)-yl)methanone], O=C(c1nnc(-c2ccncc2)o1)N1CCc2[nH]cnc2[C@@H]1c1ncc2ccccc2n1 [Example 180, (R)-(5-(pyridin-4-yl)-1,3,4-oxadiazol-2-yl)(4-(quinazolin-2-yl)-6,7-dihydro-1H-imidazo[4,5-c]pyridin-5(4H)-yl)methanone] is higher in AC50: < 500 nM for the first, > 5000 nM for the second.

Compared with COc1ccc(-c2nnc(C(=O)N3CCc4[nH]cnc4[C@H]3c3ncc4ccccc4n3)o2)nc1 [Example 181, (S)-(5-(5-methoxypyridin-2-yl)-1,3,4-oxadiazol-2-yl)(4-(quinazolin-2-yl)-6,7-dihydro-1H-imidazo[4,5-c]pyridin-5(4H)-yl)methanone], COc1ccc(-c2nnc(C(=O)N3CCc4[nH]cnc4[C@@H]3c3ncc4ccccc4n3)o2)nc1 [Example 182, (R)-(5-(5-methoxypyridin-2-yl)-1,3,4-oxadiazol-2-yl)(4-(quinazolin-2-yl)-6,7-dihydro-1H-imidazo[4,5-c]pyridin-5(4H)-yl)methanone] is higher in AC50: < 500 nM for the first, 1000 to 5000 nM for the second.

In the case of Cn1ncnc1C(=O)N1CCc2[nH]cnc2[C@H]1c1ncc2ccccc2n1 [Example 184, (S)-(1-methyl-1H-1,2,4-triazol-5-yl)(4-(quinazolin-2-yl)-6,7-dihydro-1H-imidazo[4,5-c]pyridin-5(4H)-yl)methanone], the AC50 is reported as < 500 nM.
